Literature values in patent US20040247544A1, “Use of dialkyl sulphones in cosmetic nailcare compositions for promoting growth of the nails” (L'OREAL, priority 2002, published 2004).
Where two headings read alike, the source gives them in different places.

How the values were obtained:
nails [1] = system: nails
nails [2] = details: oral ingestion, aqueous 5% solution, dogs

## CS(C)(=O)=O [MSM, methylsulphonylmethane]
Nails [1]; aqueous formulation containing 10% MSM and 50% water, applied to the nails with cotton wool, left to act for 15 minutes
  strength and brittleness of the nails: strong and less brittle
Nails [1]; nail-varnish removers: standard varnish solvent with 5 to 10% of MSM
  brittleness of the nails: less brittle
Nails [1]; solvent-based (ethyl acetate or amyl acetate) varnish containing 5% by weight of MSM
  brittleness of the nails: less brittle
Nails [2]
  growth of the nails: promotes and stimulates the growth of the nails
